Measurements from article PMC10054552, “Phototoxic Potential of Different DNA Intercalators for Skin Cancer Therapy: In Vitro Screening” (International Journal of Molecular Sciences, 2023).
Where two headings read alike, the source gives them in different places.

Key:
MET1 cells [1] = assay: Cytotoxicity (resazurin cell viability) in MET1 cells; format: cell-based, human
From the text: (§1) The MET1 SCC cell line (human squamous cell carcinoma) was obtained from Ximbio (London, UK), HaCaT (immortalized human keratinocytes cell line) was obtained from Addexbio (San Diego, CA, USA) and WM983b (human metastatic melanoma cell line) was obtained from Rockland (Pottstown, PA, USA). Cells were maintained in Dulbecco’s Modified Eagle Medium (DMEM) supplemented with 10% (v/v) fetal bovine serum (FBS) for MET1 and HaCaT and 5% (v/v) for WM983b cells, and Pen–Strep (penicillin 100 U/mL and streptomycin 100 µg/mL). Cells were cultivated in an incubator (Sanyo MCO-19AIC-UV) at 37 °C in a 5% CO2 humidified atmosphere.
(§2) First, 96-well plates were seeded with HaCaT and MET1 cells at a density of 20,000 cells/cm² and incubated for 24 h. After that period, the culture medium was replaced by culture medium containing different compounds: MB, AO, GV, QT, CUR, EGCG, PHE, NEO and BIPY. The compounds were diluted in culture medium using a range of concentrations of each compound from 1.25 µM to 320 µM (in quadruplicate). The medium was aspirated from the 96-well plate and replaced by the samples diluted in medium. Cells cultured with complete medium and cells cultured with medium supplemented with 0.2% (v/v) or 10% (v/v) of DMSO were used as negative (NC), solvent (SC) and positive controls (PC), respectively. The plates were incubated for 24 and 48 h, followed by evaluation of cell viability using a colorimetric assay. Cells containing samples were washed with PBS supplemented with calcium and magnesium; then, resazurin solution diluted in DMEM at 0.02 mg/mL was added. The medium containing resazurin was also dispensed in wells without cells, which were used as references. After 3 h of incubation, the absorbance was measured in a microplate reader (ELX800UV, Biotek Instruments) at wavelengths of 570 nm and 600 nm. The corrected absorbance was proportional to cell viability. Propagation of uncertainties was used to calculate the combined standard uncertainty. For the cytotoxicity study using WM983b cells, plates were seeded at a density of 40,000 cells/cm², and cells were treated only with MB and AO.

HaCaT cells = assay: Cytotoxicity (resazurin cell viability) in HaCaT cells; format: cell-based, human
From the text: as §1, §2

MET1 cells [2] = assay: Phototoxicity assay in MET1 cells (irradiation 2.5 J/cm², resazurin); format: cell-based, human; conditions: for phototoxicity in the investigated range: 1.25-40 µM, irradiated vs dark
Experimental: (§3) The […] SCC cell line (human squamous cell carcinoma) was obtained from Ximbio (London, UK), HaCaT (immortalized human keratinocytes cell line) was obtained from Addexbio (San Diego, CA, USA) and WM983b (human metastatic melanoma cell line) was obtained from Rockland (Pottstown, PA, USA). […] Cells were cultivated in an incubator (Sanyo MCO-19AIC-UV) at 37 °C in a 5% CO2 humidified atmosphere. […] The plates were incubated for 24 h, followed by washing with PBS supplemented with calcium and magnesium. Afterwards, complete culture medium without phenol red was added, and the plates were irradiated from above and submitted to a dose of 2.5 J/cm2 of irradiation emitted by different wavelength light sources coupled with a homemade irradiation system created in our laboratory. […] This experiment was performed in an incubator that was able to keep plates in a dark environment; therefore, the dark control plates were protected from any light source, as well as the others, with the exception of the irradiation that each one was submitted to. Plates were incubated for another 24 h, and finally, the resazurin assay was performed as previously described in Section 3.3. For the phototoxicity study using WM983b cells, plates were prepared at a cell density of 40,000 cells/cm2, and cells were treated with MB and AO only.

[3] = as above; format: cell-based, human; conditions: human, MET1 squamous cell carcinoma cells, MET1 cells, dark
Experimental: as §3

WM983b cells [4] = assay: Phototoxicity assay in WM983b cells (irradiation 2.5 J/cm², resazurin); format: cell-based; conditions: Homo sapiens, light or radiation study, treated 24 h
From the text: as §1
For the phototoxicity studies, 96-well plates were seeded with MET1 cells at a density of 20,000 cells/cm², incubated overnight and treated for 24 h with MB, AO, GV, QT, CUR, EGCG, PHE, NEO and BIPY diluted in culture medium in a concentration range of 1.25 µM to 40 µM (in sextuplicate). […] Cells cultured with complete medium and cells cultured with medium supplemented with 0.2% (v/v) or 10% (v/v) of DMSO were used as negative (NC), solvent (SC) and positive control (PC), respectively. The plates were incubated for 24 h, followed by washing with PBS supplemented with calcium and magnesium. Afterwards, complete culture medium without phenol red was added, and the plates were irradiated from above and submitted to a dose of 2.5 J/cm² of irradiation emitted by different wavelength light sources coupled with a homemade irradiation system created in our laboratory. These light sources consisted of an equivalent 26 cm UV tubular lamp (254 nm) (Phillips TUV PLS 9W/2PHg) and a tricolor LED lamp (Led Grow Light Bulb E26/E27) with intensity peaks at 457 nm (blue light), 583 nm (yellow light) and 640 nm (red light) provided by 18, 18 and 28 LEDs, respectively, with dimensions of 3 × 3 mm^2. The irradiance values of light at 254, 457, 583 and 640 nm wavelengths were of 16.7, 55, 45 and 25 W/m^2, respectively. This experiment was performed in an incubator that was able to keep plates in a dark environment; therefore, the dark control plates were protected from any light source, as well as the others, with the exception of the irradiation that each one was submitted to. Plates were incubated for another 24 h, and finally, the resazurin assay was performed as previously described in Section 3.3. For the phototoxicity study using WM983b cells, plates were prepared at a cell density of 40,000 cells/cm², and cells were treated with MB and AO only.

WM983b cells [5] = assay: Cytotoxicity (resazurin cell viability) in WM983b cells; format: cell-based, human; conditions: for IC50: Homo sapiens, 1.25-320 µM
From the text: as §1, §2

[6] = Homo sapiens, MET-1, MET1 cells, 24 h exposure, 1.25-320 µM, read-out: IC50 MET1 Cells 24 h
[7] = Homo sapiens, MET-1, MET1 cells, 48 h exposure, 1.25-320 µM, read-out: IC50 MET1 Cells 48 h
[8] = Homo sapiens, MET-1, MET1 cells, exposure time not given, read-out: IC50 in MET1 cells (summary statement)
[9] = Homo sapiens, HaCaT cells, 24 h exposure, 1.25-320 µM, read-out: IC50 HaCaT Cells 24 h
[10] = Homo sapiens, HaCaT cells, 48 h exposure, 1.25-320 µM, read-out: IC50 HaCaT Cells 48 h
[11] = Homo sapiens, MET-1, light or radiation study, MET1 cells, treated 24 h, 254 nm light, 2.5 J/cm², read-out: IC50 254 nm
[12] = Homo sapiens, MET-1, light or radiation study, MET1 cells, treated 24 h, 457 nm light, 2.5 J/cm², read-out: IC50 457 nm
[13] = Homo sapiens, MET-1, light or radiation study, MET1 cells, treated 24 h, 583 nm light, 2.5 J/cm², read-out: IC50 583 nm
[14] = Homo sapiens, MET-1, light or radiation study, MET1 cells, treated 24 h, 640 nm light, 2.5 J/cm², read-out: IC50 640 nm
[15] = Homo sapiens, MET-1, light or radiation study, MET1 cells, treated 24 h, dark control (no irradiation), read-out: IC50 Dark
[16] = Homo sapiens, MET-1, light or radiation study, MET1 cells, light condition not stated, read-out: IC50 phototoxicity results (summary statement)

SMILES | IC50 (MET1 cells [1]; [6]) [µM] | IC50 (MET1 cells [1]; [7]) [µM] | IC50 (MET1 cells [1]; [8]) [µM] | IC50 (HaCaT cells; [9]) [µM] | IC50 (HaCaT cells; [10]) [µM] | IC50 (MET1 cells [2]; [11]) [µM] | IC50 (MET1 cells [2]; [12]) [µM] | IC50 (MET1 cells [2]; [13]) [µM] | IC50 (MET1 cells [2]; [14]) [µM] | IC50 (MET1 cells [2]; [15]) [µM] | other results
c1cnc2c(c1)ccc1cccnc12 [1,10-phenanthroline] | 124 | 7.7 | > 100 | 35.2 | 5.9 | 6 | 4.9 | 6.8 | 4.8 | 7.4 | –
c1ccc(-c2ccccn2)nc1 [2,2′-bipyridyl] | – | – | – | – | – | – | – | – | – | – | IC50 (MET1 cells [1]; Homo sapiens, MET-1, 24 h, read-out: IC50 MET1 Cells 24 h): 275 µM; IC50 (MET1 cells [1]; Homo sapiens, MET-1, 48 h, read-out: IC50 MET1 Cells 48 h): 97.2 µM; IC50 (MET1 cells [1]; Homo sapiens, MET-1, read-out: IC50 in MET1 cells (summary statement)): > 100 µM; IC50 (HaCaT cells; Homo sapiens, HaCaT, 24 h, read-out: IC50 HaCaT Cells 24 h): 125 µM; IC50 (HaCaT cells; Homo sapiens, HaCaT, 48 h, read-out: IC50 HaCaT Cells 48 h): 57.8 µM; IC50 (MET1 cells [2]; Homo sapiens, MET-1, light or radiation study, 24 h, read-out: IC50 254 nm): 225 µM; IC50 (MET1 cells [2]; Homo sapiens, MET-1, light or radiation study, 24 h, read-out: IC50 457 nm): 171 µM; IC50 (MET1 cells [2]; Homo sapiens, MET-1, light or radiation study, 24 h, read-out: IC50 583 nm): 190 µM; IC50 (MET1 cells [2]; Homo sapiens, MET-1, light or radiation study, 24 h, read-out: IC50 640 nm): 202 µM; IC50 (MET1 cells [2]; Homo sapiens, MET-1, light or radiation study, 24 h, read-out: IC50 Dark): 228 µM; IC50 (MET1 cells [2]; Homo sapiens, MET-1, light or radiation study, read-out: IC50 phototoxicity results (summary statement)): > 100 µM; phototoxicity in the investigated range (MET1 cells [2]; MET1 cells): did not show phototoxicity
COc1cc(/C=C/C(=O)CC(=O)/C=C/c2ccc(O)c(OC)c2)ccc1O [Curcumin, curcumin] | 26 | 7.2 | < 30 | 9 | 11.7 | 9.3 | 10.7 | 11.5 | 11 | 15.5 | IC50 (MET1 cells [2]; Homo sapiens, MET-1, light or radiation study, MET1 cells, 640, 583, 457 and 254 nm, 2.5 J/cm², read-out: IC50 values under irradiation (all wavelengths together)): < 11.5 µM; IC50 (MET1 cells [2]; [16]): < 20 µM
O=C(O[C@@H]1Cc2c(O)cc(O)cc2O[C@@H]1c1cc(O)c(O)c(O)c1)c1cc(O)c(O)c(O)c1 [Epigallocatechin gallate, epigallocatechin gallate] | – | – | – | – | – | – | – | – | – | – | IC50 (MET1 cells [1]; MET1 cells, 24 h exposure, 1.25-320 µM, read-out: IC50 MET1 Cells 24 h): 174 µM; IC50 (MET1 cells [1]; MET1 cells, 48 h exposure, 1.25-320 µM, read-out: IC50 MET1 Cells 48 h): 136 µM; IC50 (HaCaT cells; HaCaT cells, 24 h exposure, 1.25-320 µM, read-out: IC50 HaCaT Cells 24 h): 211 µM; IC50 (HaCaT cells; HaCaT cells, 48 h exposure, 1.25-320 µM, read-out: IC50 HaCaT Cells 48 h): 174 µM; phototoxicity in the investigated range (MET1 cells [2]; MET1 cells): no phototoxicity was observed; IC50 (MET1 cells [2]; MET1 cells, light condition not stated, read-out: IC50 phototoxicity results (summary statement)): > 100 µM; IC50 (MET1 cells [2]; MET1 cells, treated 24 h, 254 nm light, 2.5 J/cm², read-out: IC50 254 nm): 193 µM; IC50 (MET1 cells [2]; MET1 cells, treated 24 h, 457 nm light, 2.5 J/cm², read-out: IC50 457 nm): 222 µM; IC50 (MET1 cells [2]; MET1 cells, treated 24 h, 583 nm light, 2.5 J/cm², read-out: IC50 583 nm): 211 µM; IC50 (MET1 cells [2]; MET1 cells, treated 24 h, 640 nm light, 2.5 J/cm², read-out: IC50 640 nm): 224 µM; IC50 (MET1 cells [2]; MET1 cells, treated 24 h, dark control (no irradiation), read-out: IC50 Dark): 191 µM
CN(C)c1ccc(C(=C2C=CC(=[N+](C)C)C=C2)c2ccc(N(C)C)cc2)cc1 [Gentian violet, gentian violet] | 3.9 | 1.2 | – | 2.8 | 0.9 | 1.5 | 2.7 | 1 | 1.8 | 2.9 | viability at 24 h, 1.25 µM ([3]; 1.25 µM, read-out: relative cell viability, dark condition, lowest concentration): < 60%
CN(C)c1ccc2nc3ccc(=[N+](C)C)cc-3sc2c1 [Methylene blue, methylene blue] | 14.2 | 4.2 | – | 11.6 | 7.1 | 4.3 | 6.2 | 5 | 3.8 | 10.9 | IC50 (WM983b cells [4]; 640 nm light, 2.5 J/cm², read-out: IC50 irradiated samples (640 nm)): 2.1 µM; IC50 (WM983b cells [4]; without irradiation, read-out: IC50 non-irradiated samples): 7.3 µM; concentration above which the relative cell population falls below 70% (WM983b cells [5]; 24 or 48 h): above 10 µM; IC50 (WM983b cells [5]; 24 h exposure, read-out: IC50 WM983b cells 24 h): 18 µM; IC50 (WM983b cells [5]; 48 h exposure, read-out: IC50 WM983b cells 48 h): 6.1 µM
Cc1ccc2ccc3ccc(C)nc3c2n1 [Neocuproine, neocuproine] | > 320 | > 320 | – | > 320 | 159 | – | – | – | – | – | viability at 24 h ([3]; 1.25-40 µM, read-out: cell viability under dark conditions): < 70%
O=c1c(O)c(-c2ccc(O)c(O)c2)oc2cc(O)cc(O)c12 [Quercetin, quercetin] | > 320 | 110 | > 100 | > 320 | 315 | 205 | 288 | 269 | 340 | 230 | IC50 (MET1 cells [2]; [16]): > 100 µM
